{"source": "patent US8383136B2", "about": "“Micelle encapsulation of therapeutic agents” (Wisconsin Alumni Research Foundation, priority 2009, dated 2013)", "key": {"[1]": {"assay": "% drug loading of PEG-b-PLA micelles (wt drug(s)/wt polymer)", "type": "physicochemical", "settings": "all drugs of the SDM or MDM together, PEG-b-PLA (4.2K:1.9K) micelles", "protocol": "Drug(s) to polymer w/w percent was calculated for SDM and MDM. PEG-b-PLA micelles were freeze dried, weighed and the amount of drug(s) in the freeze dried sample was quantified by HPLC. The drug w/w percent was calculated as the mass of the drug(s) to the mass of polymer in the freeze dried sample multiplied by 100."}, "[2]": {"assay": "Dynamic light scattering size of SDM and MDM", "type": "physicochemical", "settings": "DLS, drug-loaded SDM or MDM", "protocol": "The drug-loaded micellar solutions were diluted 20 times with DD H2O and the samples was equilibrated for 2 min at 25° C. before the measurements. […] The hydrodynamic diameter of PEG-b-PLA micelles was calculated based on the Stokes-Einstein equation. Correlation function was curve fitted by cumulant method to calculate mean size and polydispersion index (PDI). All measurements were repeated three times, and volume-weighted particle sizes were presented as the average diameter with standard deviation."}, "[3]": {"assay": "Physical stability / drug loss from PEG-b-PLA micelles after 24 hours (turbidity, HPLC)", "type": "physicochemical", "settings": "for drug precipitated at 24 hours: SDM, HPLC data; for % w/w drug(s) left @ 24 hr / initial drug level in water / drug level @ 24 hr in water: PEG-b-PLA micelles; for time the micelles were physically stable: turbidity, ambient temperature", "protocol": "Turbidity measurements were used to evaluate the physical stability of drug-loaded PEG-b-PLA micelles. A CARY 50 BIO UV-Visible spectrophotometer equipped with dip probe was used to measure turbidity. Micellar solutions were diluted six times, for a final concentration of PEG-b-PLA of 5 mg/mL, with DD H2O and filtered through 0.45 μm filter. […] Each measurement was performed in triplicate."}, "[4]": {"assay": "In vitro drug release from PEG-b-PLA micelles (dialysis method)", "type": "physicochemical", "protocol": "(§1) SDMs or MDMs were prepared and characterized as described above. Post micelle preparation each sample was diluted with DD H2O, to yield about 0.10 mg/mL of each drug. A volume of 2.5 mL of the prepared sample was loaded into a 3 mL Slide-A-Lyzer® (Thermo Scientific Inc.) dialysis cassette with a MWCO of 20,000 g/mol. Four cassettes were used in each experiment. The cassettes were placed in 2.0 L of buffer which was changed every 3 hours to ensure sink conditions for drug(s) and polymer. A sample of 100 μL was drawn from each cassette at various sampling time intervals and then replaced with 100 μL of fresh buffer. […] The amount of drug(s) in each sample was quantified by HPLC as described above.\nStatistical analysis was performed using one-way ANOVA at 5% significance level combined with Tukey's Multiple Comparison Test or t-test at 5% significance level. Curve-fitting analysis using one phase exponential association was used to calculate the half-life (t1/2) of drug in in vitro drug release experiments. Both analyses were performed using GraphPad Prism version 5.00 for Windows, Graph-Pad Software, San Diego Calif. USA, www.graphpad.com.\nas §1, with “Post-micelle preparation,” for “Post micelle preparation”, “yield samples of” for “yield”, “reverse phase HPLC.” for “HPLC as described above.”"}, "[5]": {"settings": "cited from earlier work"}, "[6]": {"test_system": "pediatric acute lymphoblastic leukemia cell lines", "settings": "combination of 17-AAG and ETO, four cell lines; cited from earlier work"}, "[7]": {"assay": "Drug solubilization by PEG-b-PLA micelles (drug level in water, reverse phase HPLC)", "settings": "SDM or MDM, PEG-b-PLA (4.2K:1.9K) micelles", "procedure": "The drug-polymer mixture was dissolved in 0.50 mL acetonitrile (ACN). The ACN was removed at 60° C. under reduced pressure on a rotary evaporator resulting in the formation of a homogenous film, The drug-polymer film was rehydrated with 0.50 mL of DD H2O at 60° C. with gentle agitation resulting in a clear solution of drug-loaded PEG-b-PLA micelles. The micellar solution was filtered using a 0.45 μm filter, and the micelles were characterized in terms of size and loading by Dynamic Light Scattering (DLS) and HPLC respectively.\nMDMS were prepared similarly to the SDMs by mixing 2.0 mg of each drug with 15 mg of the polymer. The procedure for the preparation and characterization of these micelles was identical to the SDMs.\nThe content of drug loaded in PEG-b-PLA micelles was quantified by reverse phase HPLC. The HPLC system used for quantifying was a Shimadzu prominence HPLC system (Shimadzu, JP), consisting of a LC-20AT pump, SIL-20AC HT autosampler, CTO-20AC column oven and a SPD-M20A diode array detector. A sample of 10 μL was injected into a Zorbax SB-C8 Rapid Resolution cartridge (4.6×75 mm, 3.5 micron, Agilent). The column temperature was maintained at 40° C. throughout the run. Two HPLC methods were developed to quantify the amount of the drug(s) loaded in PEG-b-PLA micelles.\nThe mobile phase was an isocratic mixture of 45% ACN and 54% aqueous phase containing 0.1% phosphoric acid and 1% methanol in DD H2O.\nThe mobile phase was a gradient mixture of ACN and aqueous phase containing 0.1% phosphoric acid and 1% methanol in DD H2O. […] With both HPLC methods samples were injected twice and reproducible and rapid separation of the drugs was achieved.\nMn of PEG and PLA of PEG-b-PLA was 4,200 and 1,900 g/mol, respectively (APC Inc., UK). ACN was removed by heating at 60° C. and reduced pressure. The resultant dry polymer film containing anti-cancer agent(s) was dissolved by addition of water (0.50 mL) at 60° C. with gentle agitation.\nThe resultant dry PEG-b-PLA film containing drugs was dissolved by the addition of water (0.50 mL) at 60° C. with gentle agitation."}, "[8]": {"test_system": "A549 human non-small cell lung cancer cells", "assay": "In vitro cytotoxicity, resazurin assay, and combination index", "type": "cell-based", "settings": "drug(s) in SDM or MDM, 72 hours, unit inferred, PTX/17-AAG 4.7:1, RAP/17-AAG 1:1, RAP/PTX 1:1, RAP/PTX/17-AAG 1:5:1, read-out: IC50", "protocol": "(§2) MCF-7 human breast cancer cells were cultured in DMEM medium while 4T1 murine breast cancer cells, A549 human non-small cell lung cancer cells, and LS180 human colon cancer cells were cultured in RPMI1640 medium. Both media were supplemented with 10% fetal bovine serum (FBS) with antibiotics under 5% CO2 and 37° C. in an incubator. […] Free drugs were dissolved in DMSO, and drug-loaded PEG-b-PLA micelles were in deionized water. The samples were diluted with cell culture media to make 0.10, 1.0, 10, 100 and 1000 nM in 96 well plates. […] The metabolic conversion of resazurin dye by each viable cancer cell was quantified using a fluorescence cell plate reader (SpectraMax M2, Molecular Devices, USA) to estimate cell viability. […] IC50 values of free drugs and drug-loaded PEG-b-PLA micelles were calculated based on median-effect equation using Compusyn software (ver. 1.0).\n(§3) CI values were obtained at IC50 values for 2- or 3-drug combinations. CI<1, C=1, and CI>1 were used as criteria to determine whether 2- or 3-drug combinations are synergistic, additive, and antagonistic, respectively (FIGS. 13-20)."}, "[9]": {"test_system": "MCF-7 human breast cancer cells", "assay": "In vitro cytotoxicity, resazurin assay, and combination index", "type": "cell-based", "settings": "Homo sapiens, MCF7, 72 h; read-out: IC50", "protocol": "as §2, §3"}, "[10]": {"test_system": "4T1 murine breast cancer cells", "assay": "In vitro cytotoxicity, resazurin assay, and combination index", "type": "cell-based", "settings": "drug(s) in SDM or MDM, 72 hours, unit inferred, PTX/17-AAG 4.7:1, RAP/17-AAG 1:1, RAP/PTX 1:1, RAP/PTX/17-AAG 1:5:1, read-out: IC50", "protocol": "as §2, with “The samples were diluted with cell culture media to make 0.10, 1.0, 10, 100 and 1000 nM in 96 well plates.” left out\nas §3"}, "[11]": {"assay": "Acute toxicity experiments in FVB female albino mice", "settings": "PEG-b-PLA micelles, 3 IV injections days 0, 4, 8; paclitaxel 60, 17-AAG 60, rapamycin 30 mg/kg", "protocol": "Briefly, acute toxicity experiments were carried out in FVB female albino mice with 3 IV injections on days 0, 4, and 8, measuring body weights and monitoring survival over 12 days (FIG. 21)."}, "[12]": {"test_system": "H-358 human non-small-cell lung cancer xenografts", "settings": "combined with 17-AAG; cited from earlier work"}}, "note": "Several values for one entry are separate records, joined by “and”; a condition that tells them apart may be missing. Identical values can stand only once. Entries after “also recorded” stand apart in the source; their conditions may differ."}
{"smiles": "COc1cc([C@@H]2c3cc4c(cc3[C@@H](O[C@@H]3O[C@@H]5CO[C@@H](C)O[C@H]5[C@H](O)[C@H]3O)[C@H]3COC(=O)[C@H]23)OCO4)cc(OC)c1O", "note": "[Etoposide]", "values": [{"measurement": "% drug loading (wt. drug(s)/wt. polymer)", "setting": "[1]", "value": "11.0 ± 0.5", "unit": "%"}, {"measurement": "% drug loading (wt. drug(s)/wt. polymer)", "setting": "[1]; listed as ETO", "value": 9.6, "unit": "%"}, {"measurement": "PEG-b-PLA micelle diameter", "setting": "[2]", "value": "32.6 ± 1.0", "unit": "nm"}, {"measurement": "drug precipitated at 24 hours", "setting": "[3]", "value": "~68", "unit": "%"}, {"measurement": "% w/w drug(s) left @ 24 hr", "setting": "[3]; analyte etoposide", "value": "32.3 ± 3.4", "unit": "% w/w"}, {"measurement": "initial drug level in water", "setting": "[3]; analyte etoposide", "value": "3.31 ± 0.15", "unit": "mg/mL"}, {"measurement": "drug level @ 24 hr in water", "setting": "[3]; analyte etoposide", "value": "1070 ± 160", "unit": "µg/mL"}, {"measurement": "time the micelles were physically stable", "setting": "[3]", "value": "approximately 6 hours"}, {"measurement": "first-order rate constant", "setting": "[4]; release of etoposide, 12.5 mM PBS, pH=7.4, 37° C.", "value": 0.636, "unit": "h⁻¹"}, {"measurement": "intrinsic solubility in water", "setting": "[5]; drug without micelles", "value": 58, "unit": "µg/mL"}, {"measurement": "decrease of the IC50 of ETO", "setting": "[6]", "value": 10, "unit": "fold"}, {"measurement": "drug level in water", "setting": "[7]; analyte etoposide", "value": "3310 ± 150", "unit": "µg/mL"}]}
{"smiles": "CC(=O)O[C@H]1C(=O)[C@@]2(C)[C@H]([C@H](OC(=O)c3ccccc3)[C@]3(O)C[C@H](OC(=O)[C@H](O)[C@@H](NC(=O)c4ccccc4)c4ccccc4)C(C)=C1C3(C)C)[C@]1(OC(C)=O)CO[C@@H]1C[C@@H]2O", "note": "[Paclitaxel]", "values": [{"measurement": "% drug loading (wt. drug(s)/wt. polymer)", "setting": "[1]", "value": "11.8 ± 1.1% and 10.3 ± 0.9%"}, {"measurement": "% drug loading (wt. drug(s)/wt. polymer)", "setting": "[1]; listed as PTX", "value": 10.3, "unit": "%"}, {"measurement": "PEG-b-PLA micelle diameter", "setting": "[2]", "value": "38.8 ± 0.6", "unit": "nm"}, {"measurement": "drug precipitated at 24 hours", "setting": "[3]", "value": "approximately 84%"}, {"measurement": "% w/w drug(s) left @ 24 hr", "setting": "[3]; analyte paclitaxel", "value": "16.2 ± 1.0", "unit": "% w/w"}, {"measurement": "initial drug level in water", "setting": "[3]; analyte paclitaxel", "value": "3.54 ± 0.32", "unit": "mg/mL"}, {"measurement": "drug level @ 24 hr in water", "setting": "[3]; analyte paclitaxel", "value": "570 ± 70", "unit": "µg/mL"}, {"measurement": "time the micelles were physically stable", "setting": "[3]", "value": "approximately 6 hours"}, {"measurement": "behaviour of PTX during the release test", "setting": "[4]; SDM, dialysis, listed as PTX", "value": "Rapid precipitation; also recorded: precipitated during release"}, {"measurement": "IC50", "setting": "[8]", "value": "397 ± 59", "unit": "nM"}, {"measurement": "IC50", "setting": "[9]", "value": "226 ± 32", "unit": "nM"}, {"measurement": "IC50", "setting": "[10]", "value": "11200 ± 4160", "unit": "nM"}, {"measurement": "acute toxicity", "setting": "[11]", "value": "low"}, {"measurement": "solubility of paclitaxel in water", "setting": "[5]; without micelles", "value": "approximately 1 μg/mL"}, {"measurement": "enhancement of PTX cytotoxicity", "setting": "[12]", "value": "5-22 fold"}, {"measurement": "drug level in water", "setting": "[7]; analyte paclitaxel", "value": "3540 ± 320", "unit": "µg/mL"}, {"measurement": "drug level in water", "setting": "[7]; analyte paclitaxel, listed as PTX", "value": 3500, "unit": "µg/mL"}]}
